Source: the supplement of paper PMC10307832

Tests used:
Assay in all cases: relative viability (nuclei count vs DMSO), 5 days (fraction); higher = more cells survive
[1] = test system: ChaGo-K-1
Procedure, shortened: (§1)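 A single step with final 0.05% Triton X-100, 1% formaldehyde and 1 ug/ml Hoechst fixed the cells and stained nuclei 5 days after treatment. Lung cancer cell lines in 1536-well plates had been treated by pin tool the day after seeding with one drug alone or a fixed anchor-drug dose plus five library-drug doses (not always all listed) in √10 steps, and nuclei were counted on 4× images. Relative viability is the ratio of nuclei in treated wells to nuclei in vehicle wells, taken as the median of duplicate plates.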

[2] = test system: EMC-BAC-2
Procedure, shortened: as §1

[3] = test system: HCC-366
Procedure, shortened: as §1

[4] = test system: HCC-78
Procedure, shortened: as §1

[5] = test system: HOP-62
Procedure, shortened: as §1

[6] = test system: LC-2-ad
Procedure, shortened: as §1

[7] = test system: LK-2
Procedure, shortened: as §1

[8] = test system: NCI-H1355
Procedure, shortened: as §1

[9] = test system: NCI-H1734
Procedure, shortened: as §1

[10] = test system: NCI-H1993
Procedure, shortened: as §1

[11] = test system: NCI-H2009
Procedure, shortened: as §1

[12] = test system: NCI-H2085
Procedure, shortened: as §1

[13] = test system: NCI-H2347
Procedure, shortened: as §1

[14] = test system: NCI-H2405
Procedure, shortened: as §1

[15] = test system: NCI-H3122
Procedure, shortened: as §1

[16] = test system: NCI-H596
Procedure, shortened: as §1

[17] = test system: NCI-H838
Procedure, shortened: as §1

[18] = test system: PC-14
Procedure, shortened: as §1

[19] = test system: RERF-LC-KJ
Procedure, shortened: as §1

[20] = test system: SK-MES-1
Procedure, shortened: as §1

[21] = test system: SW 1573
Procedure, shortened: as §1

## Cc1cnc(-c2cnc(NCCNc3ccc(C#N)cn3)nc2-c2ccc(Cl)cc2Cl)[nH]1 + Nc1ncn([C@H]2C[C@H](O)[C@@H](CO)O2)c(=O)n1 [Decitabine] (partner 2 µM)
[1]; first compound 0.08 µM
  relative viability: 0.546
[1]; first compound 0.253 µM
  relative viability: 0.485
[1]; first compound 0.8 µM
  relative viability: 0.499
[1]; first compound 2.53 µM
  relative viability: 0.466
[2]; first compound 0.08 µM
  relative viability: 1.15
[2]; first compound 0.253 µM
  relative viability: 0.911
[2]; first compound 0.8 µM
  relative viability: 0.912
[2]; first compound 2.53 µM
  relative viability: 0.995
[3]; first compound 0.08 µM
  relative viability: 0.372
[3]; first compound 0.253 µM
  relative viability: 0.318
[3]; first compound 0.8 µM
  relative viability: 0.288
[3]; first compound 2.53 µM
  relative viability: 0.335
[4]; first compound 0.08 µM
  relative viability: 0.692
[4]; first compound 0.253 µM
  relative viability: 0.507
[4]; first compound 0.8 µM
  relative viability: 0.767
[4]; first compound 2.53 µM
  relative viability: 0.731
[5]; first compound 0.08 µM
  relative viability: 0.204
[5]; first compound 0.253 µM
  relative viability: 0.226
[5]; first compound 0.8 µM
  relative viability: 0.236
[5]; first compound 2.53 µM
  relative viability: 0.174
[6]; first compound 0.08 µM
  relative viability: 0.791
[6]; first compound 0.8 µM
  relative viability: 0.885
[6]; first compound 2.53 µM
  relative viability: 0.776
[7]; first compound 0.08 µM
  relative viability: 0.27
[7]; first compound 0.253 µM
  relative viability: 0.275
[7]; first compound 0.8 µM
  relative viability: 0.323
[7]; first compound 2.53 µM
  relative viability: 0.395
[8]; first compound 0.08 µM
  relative viability: 0.354
[8]; first compound 0.253 µM
  relative viability: 0.316
[8]; first compound 0.8 µM
  relative viability: 0.36
[8]; first compound 2.53 µM
  relative viability: 0.371
[9]; first compound 0.08 µM
  relative viability: 0.514
[9]; first compound 0.253 µM
  relative viability: 0.453
[9]; first compound 0.8 µM
  relative viability: 0.544
[9]; first compound 2.53 µM
  relative viability: 0.567
[10]; first compound 0.08 µM
  relative viability: 0.744
[10]; first compound 0.253 µM
  relative viability: 0.584
[10]; first compound 0.8 µM
  relative viability: 0.628
[10]; first compound 2.53 µM
  relative viability: 0.591
[11]; first compound 0.08 µM
  relative viability: 0.426
[11]; first compound 0.253 µM
  relative viability: 0.37
[11]; first compound 0.8 µM
  relative viability: 0.404
[11]; first compound 2.53 µM
  relative viability: 0.395
[12]; first compound 0.08 µM
  relative viability: 0.535
[12]; first compound 0.253 µM
  relative viability: 0.554
[12]; first compound 0.8 µM
  relative viability: 0.542
[12]; first compound 2.53 µM
  relative viability: 0.572
[13]; first compound 0.08 µM
  relative viability: 0.708
[13]; first compound 0.253 µM
  relative viability: 0.55
[13]; first compound 0.8 µM
  relative viability: 0.65
[13]; first compound 2.53 µM
  relative viability: 0.65
[14]; first compound 0.08 µM
  relative viability: 0.799
[14]; first compound 0.253 µM
  relative viability: 0.734
[14]; first compound 0.8 µM
  relative viability: 0.758
[14]; first compound 2.53 µM
  relative viability: 0.645
[15]; first compound 0.08 µM
  relative viability: 0.461
[15]; first compound 0.8 µM
  relative viability: 0.461
[15]; first compound 2.53 µM
  relative viability: 0.386
[16]; first compound 0.08 µM
  relative viability: 1.08
[16]; first compound 0.253 µM
  relative viability: 0.995
[16]; first compound 0.8 µM
  relative viability: 1.03
[16]; first compound 2.53 µM
  relative viability: 1.07
[17]; first compound 0.08 µM
  relative viability: 0.503
[17]; first compound 0.253 µM
  relative viability: 0.506
[17]; first compound 0.8 µM
  relative viability: 0.47
[17]; first compound 2.53 µM
  relative viability: 0.46
[18]; first compound 0.08 µM
  relative viability: 0.232
[18]; first compound 0.253 µM
  relative viability: 0.171
[18]; first compound 0.8 µM
  relative viability: 0.217
[18]; first compound 2.53 µM
  relative viability: 0.234
[19]; first compound 0.08 µM
  relative viability: 0.713
[19]; first compound 0.253 µM
  relative viability: 0.702
[19]; first compound 0.8 µM
  relative viability: 0.66
[19]; first compound 2.53 µM
  relative viability: 0.599
[20]; first compound 0.08 µM
  relative viability: 0.378
[20]; first compound 0.253 µM
  relative viability: 0.35
[20]; first compound 0.8 µM
  relative viability: 0.393
[20]; first compound 2.53 µM
  relative viability: 0.406
[21]; first compound 0.08 µM
  relative viability: 0.583
[21]; first compound 0.253 µM
  relative viability: 0.457
[21]; first compound 0.8 µM
  relative viability: 0.474
[21]; first compound 2.53 µM
  relative viability: 0.354
